Calls of active or inactive are those of the source. The calls are words filed in the database; no cut-off is given here.

The nature of assay [1]: Cytotoxicity against human U87 cells assessed as viability in presence of beta glucuronidase. It is filed as functional, cell-based, U-87MG ATCC. The note with it: U-87 MG.
For a further assay, the system named is U-87MG ATCC. Description: Cytotoxicity against human U87 cells assessed as viability at 200 uM after 5 days by MTS assay. The assay is classed as functional, cell-based.

One may read the IC50 as the concentration at which inhibition is half-maximal. For the compound `CC1=C2C[C@H]3[C@@H](CC=C4C[C@@H](O)CC[C@@]43C)[C@@H]2CC[C@]12O[C@@H]1C[C@H](C)CN[C@H]1[C@H]2C` [CYCLOPAMINE], in assay [1], the IC50 is 15.5 µM.

For the compound `CC1=C2C[C@H]3[C@@H](CC=C4C[C@@H](O)CC[C@@]43C)[C@@H]2CC[C@]12O[C@@H]1C[C@H](C)CN(C(=O)OCc3ccc(O[C@@H]4O[C@H](C(=O)O)[C@@H](O)[C@H](O)[C@H]4O)c([N+](=O)[O-])c3)[C@H]1[C@H]2C`, the result in the assay on U-87MG ATCC was inactive. Moreover, the 50% inhibitory concentration (IC50) in assay [1] stood at 21 µM.

The values above are taken from ChEMBL document CHEMBL1157045, “Study of a cyclopamine glucuronide prodrug for the selective chemotherapy of glioblastoma” (Eur J Med Chem, 2010).
